{"source": "patent US8389509B2", "about": "“Substituted pyrazole compounds” (Bristol-Myers Squibb Company, priority 2009, dated 2013)", "key": {"S1P1": {"molecular_target": "T1, S1P1 (Homo sapiens, UniProt P21453)", "T1 construct": "expressed in transfected cells; host or cells: CHO cells", "T1 sequence (P21453 whole entry)": "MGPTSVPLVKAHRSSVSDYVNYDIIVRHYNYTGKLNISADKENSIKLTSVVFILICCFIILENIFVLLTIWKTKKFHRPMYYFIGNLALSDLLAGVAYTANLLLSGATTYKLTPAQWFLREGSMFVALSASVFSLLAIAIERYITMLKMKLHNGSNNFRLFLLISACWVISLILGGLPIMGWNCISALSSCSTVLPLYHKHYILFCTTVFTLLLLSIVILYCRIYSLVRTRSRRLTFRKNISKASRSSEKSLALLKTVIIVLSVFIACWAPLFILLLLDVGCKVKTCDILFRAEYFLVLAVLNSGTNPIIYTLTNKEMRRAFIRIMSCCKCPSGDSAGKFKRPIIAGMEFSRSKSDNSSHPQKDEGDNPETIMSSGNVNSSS", "experiment": "Method A: Receptor [35S] GTPγS Binding Assay, S1P1", "type": "biochemical", "description": "Method A: Receptor [35S] GTPγS Binding Assays\nCompounds were loaded in a 384 FALCON® v-bottom plate (0.5 μl/well in a 3-fold dilution). Membranes prepared from S1P1/CHO cells or EDG3-Gal5-bla HEK293T cells were added to the compound plate (40 μl/well, final protein 3 μg/well) with MULTIDROP®. [^35S]GTP (1250 Ci/mmol, Perkin Elmer) was diluted in assay buffer: 20 mM HEPES, pH7.5, 10 mM MgCl2, 150 mM NaCl, 1 mM EGTA, 1 mM DTT, 10 μM GDP, 0.1% fatty acid free BSA, and 10 μg/ml Saponin to 0.4 nM. 40 μl of the [^35S] GTP solution was added to the compound plate with a final concentration of 0.2 nM. The reaction was kept at room temperature for 45 min. At the end of incubation, all the mixtures in the compound plate were transferred to a 384 well FB filter plates via GPCR robot system. The filter plate was washed with water 4 times by using the modified manifold Embla plate washer and dried at 60° C. for 45 min. 30 μA of MicroScint 20 scintillation fluid was added to each well for counting at Packard TOPCOUNT®. EC50 is defined as the agonist concentration that corresponds to 50% of the Ymax (maximal response) obtained for each individual compound tested.\nCompounds of the present invention and Comparative Compound A were tested in the Receptor [^35S] GTPγS Binding Assays (Method A) and Receptor [^35S] In some instances, the value is an average of multiple experiments where N is the number of experiments conducted that provided satisfactory dose response curves. When more than one batch of an example was tested, the value presented is from a batch which allowed a comparison of GTPγS S1P1 and GTPγS S1P3 in which the most number of experiments were performed. Preferably, the same batch was examined in Method A and Method B. Data was not averaged across different batches of an example compound."}, "circulating lymphocytes": {"test_system": "circulating lymphocytes", "experiment": "Blood Lymphocyte Reduction Assay (BLR) in mice", "type": "in vivo, BALB/c mice", "details": "oral", "description": "Blood Lymphocyte Reduction Assay (BLR) in Rodents\nLewis rats or BALB/c mice were dosed orally with test article (as a solution or suspension in the vehicle) or vehicle alone (polyethylene glycol 300, “PEG300”). Blood was drawn at 4 hr and 24 h by retro-orbital bleeding. Blood lymphocyte counts were determined on an ADVIA 120 Hematology Analyzer (Siemens Healthcare Diagnostics). The results were measured as a reduction in the percentage of circulating lymphocytes as compared to the vehicle treated group at the 4 hr and 24 hr measurement. The results represent the average results of all animals within each treatment group (n=3-4).\nCompounds of the present invention were tested in the Blood Lymphocyte Reduction assay (BLR) described hereinabove and the results are shown in Table D for rats and Table E for mice."}, "Lewis rats": {"test_system": "Lewis rats", "experiment": "Rat Adjuvant Induced Arthritis Assay (AA)", "type": "in vivo", "details": "for Paw Swelling (mL) on Day 20, Mean: vehicle mean 2.11", "description": "Rat Adjuvant Induced Arthritis Assay (AA)\nMale Lewis rats (150-175 g; Harlan, n=8 treatment group) were immunized at the base of the tail with 100 μl of 10 mg/ml freshly ground Mycobacterium butyricum (Difco Laboratories) in incomplete Freund's adjuvant (sigma). Animals were dosed once daily with the test article (as a solution or suspension in the vehicle) or vehicle alone (polyethylene glycol 300, “PEG300”) starting from the day of immunization. The volumes of their hind paws were measured in a water displacement plethysmometer (Ugo Basile, Italy). The baseline paw measurements were taken before onset of the disease (between day 7 to day 10). The paw measurements were then taken three times a week until the end of the study on day 20 to 21. All procedures involving animals were reviewed and approved by the Institutional Animal Care Use Committee.\nCompounds of the present invention were tested in the Rat Adjuvant Induced Arthritis assay described hereinabove and the results are shown in Table F and Table G."}, "C57BL/6 mice": {"test_system": "C57BL/6 mice", "experiment": "Mouse Experimental Autoimmune Encephalomyelitis Assay (EAE)", "type": "in vivo", "details": "for Clinical Score on Day 24, Mean: vehicle mean 2.63", "description": "Mouse Experimental Autoimmune Encephalomyelitis Assay (EAE)\nMice (C57BL/6 female, 6-8 weeks of age, Charles River, n=10-12 treatment group) were immunized subcutaneously with 150 μg MOG35-55 emulsified 1:1 with […] Freund's adjuvant (sigma) supplemented with 150 μg Mycobacterium tuberculosis H37RA (Difco Laboratories). 400 ng of pertussis toxin (CalBiochem) was injected intraperitoneally on the day of immunization and two days later. Animals were dosed once daily with the test article (as a solution or suspension in the vehicle) or vehicle alone (polyethylene glycol 300, “PEG300”) starting from 1 day after immunization. Clinical scoring and body weight were taken 3 times per week until the end of the study on day 24. Clinical scoring system: 0.5: partial tail weakness; 1: limp tail or waddling gait with tail tonicity; 1.5: waddling gait with partial tail weakness; 2: waddling gait with limp tail (ataxia); 2.5: ataxia with partial limb paralysis; 3: full paralysis of one limb; 3.5: full paralysis of one limbs with partial paralysis of a second limb; 4: full paralysis of two limbs; 4.5: moribund; 5: death. A compound of the present invention was tested in the Mouse Experimental Autoimmune Encephalomyelitis assay described hereinabove and the results are shown in Table H."}}, "data": [{"smiles": "O=C(O)C1CN(Cc2ccc(-c3noc(-c4cnn(-c5ccccn5)c4C(F)(F)F)n3)cc2)C1", "note": "[Example 1, 1-(4-(5-(1-(Pyridin-2-yl)-5-(trifluoromethyl)-1H-pyrazol-4-yl)-1,2,4-oxadiazol-3-yl)benzyl)azetidine-3-carboxylic acid]", "values": [{"measurement": "EC50", "setting": "S1P1; Method A, S1P1/CHO cell membranes", "result": 2.9, "unit": "nM"}, {"measurement": "GTPγS S1P3/S1P1 (Method A)", "setting": "S1P1; ratio of S1P3 EC50 to S1P1 EC50, Method A", "result": "2,300"}, {"measurement": "% reduction in lymphocytes at 4 hr.", "setting": "circulating lymphocytes; 0.3 mg/kg", "result": 74, "unit": "%"}, {"measurement": "% reduction in lymphocytes at 24 hr.", "setting": "circulating lymphocytes; 0.3 mg/kg", "result": 30, "unit": "%"}, {"measurement": "% reduction in lymphocytes at 4 hr.", "setting": "circulating lymphocytes; 1.0 mg/kg", "result": 85, "unit": "%"}, {"measurement": "% reduction in lymphocytes at 24 hr.", "setting": "circulating lymphocytes; 1.0 mg/kg", "result": 68, "unit": "%"}, {"measurement": "% reduction in lymphocytes at 4 hr.", "setting": "circulating lymphocytes; 3.0 mg/kg", "result": 85, "unit": "%"}, {"measurement": "% reduction in lymphocytes at 24 hr.", "setting": "circulating lymphocytes; 3.0 mg/kg", "result": 76, "unit": "%"}, {"measurement": "% reduction in lymphocytes at 4 hr.", "setting": "circulating lymphocytes; 10.0 mg/kg", "result": 84, "unit": "%"}, {"measurement": "% reduction in lymphocytes at 24 hr.", "setting": "circulating lymphocytes; 10.0 mg/kg", "result": 88, "unit": "%"}, {"measurement": "Paw Swelling (mL) on Day 20, Mean", "setting": "Lewis rats; 1.0 mg/kg once daily", "result": 2.36, "unit": "mL"}, {"measurement": "Paw Swelling (mL) on Day 20, Mean", "setting": "Lewis rats; 3.0 mg/kg once daily", "result": 1.45, "unit": "mL"}, {"measurement": "Paw Swelling (mL) on Day 20, Mean", "setting": "Lewis rats; 6.0 mg/kg once daily", "result": 0.17, "unit": "mL"}, {"measurement": "Paw Swelling (mL) on Day 20, Mean", "setting": "Lewis rats; 10.0 mg/kg once daily", "result": 0.12, "unit": "mL"}, {"measurement": "disease progression as measured by paw swelling", "setting": "Lewis rats; Lewis rat, prophylactic oral dosing", "result": "inhibit disease progression"}, {"measurement": "Clinical Score on Day 24, Mean", "setting": "C57BL/6 mice; 1.0 mg/kg once daily", "result": 0.32}, {"measurement": "Clinical Score on Day 24, Mean", "setting": "C57BL/6 mice; 3.0 mg/kg once daily", "result": 0.77}, {"measurement": "Clinical Score on Day 24, Mean", "setting": "C57BL/6 mice; 10.0 mg/kg once daily", "result": 0.30}, {"measurement": "disease progression as determined by the clinical scores", "setting": "C57BL/6 mice; C57Bl/6 mice, prophylactic oral dosing", "result": "inhibits disease progression"}]}]}
